{"source": "patent US20230404956A1", "about": "“T[…] FOR […]” (Asklepion Pharmaceuticals LLC, priority 2022, published 2023)", "key": {"[1]": {"system": "nitric oxide production", "test": "Nitric oxide production in a murine system, measured via NO metabolites", "description": "It is important to recall that citrulline is regenerated in the last step of NO production, making negative feedback by citrulline a reasonable hypothesis. Alternatively, an acute increase in NO production, which is known to have a negative feedback effect on NOS (Viziri and Wang, 1999) could explain the results. […] The negative clinical effects in the >95% group for the Phase 3 trial may thus result from one or more negative feedback mechanisms. The negative feedback could result from either the effect of NO or the citrulline itself creating feedback on the system."}, "[2]": {"system": "pediatric patients undergoing surgical procedures involving cardiopulmonary bypass", "conditions": "22 patients (11 Tx, 11 PL); Dose 2 100 μmol; cited from earlier work"}, "[3]": {"system": "pediatric patients exposed to cardiopulmonary bypass in congenital heart defect surgery", "test": "Phase 3 double-blind, placebo-controlled trial of citrulline in congenital heart defect surgery with cardiopulmonary bypass", "assay_type": "in vivo", "method": "A Phase 3 study was carried out as a double-blind, placebo-controlled trial to confirm the effect. The Phase 3 trial was performed in the US, EU, and Israel, using a modified intent-to-treat population (or modified full analysis set) of 190 patients, of whom 138 were in the US and 52 were ex-US.\nThe starting point for the analysis was consideration of the complete modified full analysis set, consisting of all enrolled patients who completed the protocol. […] The Modified Full Analysis Set consists of all enrolled patients who completed the protocol.\nIn the study protocol and accompanying pharmacy manual for both studies, citrulline dosing occurs in four distinct phases. Dose 1 is a loading dose added to the cardiopulmonary bypass fluids on a mg/kg basis. Dose 3 is a bolus administered following surgery on a mg/kg basis, and Dose 4 is an IV drip at 9 mg/kg/hour. No variation in administration of these doses was introduced during the course of the phase 3 study.\nIn contrast, Dose 2, the intraoperative dosing designed to compensate for ultrafiltration, was subject to some variation. Ultrafiltration during cardiac surgery is not standardized, and therefore, it was not possible to completely standardize this dose. The perfusionist estimates the volume of ultrafiltrate removed, as well as the volume of cardioplegia solution. The perfusionist then calculates according to the study pharmacy manual instructions the amount of citrulline to be administered to compensate for the ultrafiltered citrulline in order to maintain a specified therapeutic level.\nAlthough the therapeutic target level was set at 100 micromolar during the phase 2 study, because of the potential for variation in Dose 2 (which is given intraoperatively to compensate for the routine ongoing ultrafiltration of circulating bypass fluids to reduce the circulating concentrations of inflammatory mediators) and the concern that some patients might inadvertently receive sub-therapeutic intraoperative levels, the target level for Dose 2 in the phase 3 study was increased to 200 micromolar. This was considered to be safe since no adverse effects of citrulline had been reported, even at substantially higher levels in medical use. In order to examine whether variation in Dose 2 could explain the results obtained, the actual dose received, shown as the percent of the targeted dose, was plotted against the composite variable results. Since placebos received no citrulline, they were plotted at the 0% level.\nFor the Phase 3 trial, a target intraoperative dose of […] (Dose 2) was chosen to preclude an inadvertent drop below an efficacious level in any patient. The potential for variation in intraoperative dosing arises from the lack of standardization of cardiopulmonary bypass ultrafiltration techniques. […] Nonetheless, expansion of the study to a greater number of sites raised the concern that some sites might inadvertently underdose Dose 2. Given the known innocuous nature of L-citrulline, an endogenous amino acid that is given medicinally in doses an order of magnitude higher than this to urea cycle disorder patients, as well as the well-tolerated high endogenous concentrations of citrulline in hypercitrullinemia patients, there was no concern for erring on the high side of the presumed effective dose.\nTo investigate the data in more detail, patients were stratified according to the dose level actually administered intraoperatively. The values obtained for duration of mechanical ventilation (MV), length of inotrope therapy (InoTx) and the composite primary (created for the SAP, based on the longer of the MV or InoTx) in any patient were segmented into groups based on the percent of the 200 μmol target dose actually received by the patient, by comparing patients who had received <65%, <75%, <85%, <95%, and >95% of the calculated target dose. […] Analysis was performed via two-sided Wilcoxon Rank Sum. […]"}}, "data": [{"smiles": "NC(=O)NCCC[C@H](N)C(=O)O", "note": "[citrulline, L-citrulline]", "values": [{"measurement": "Nitric oxide production as measured via NO metabolites", "setting": "[1]; continued increase in citrulline concentration", "value": "diminished production of NO"}, {"measurement": "Nitric oxide production", "setting": "[1]; increasing levels of citrulline, initially", "value": "initially facilitate nitric oxide production"}, {"measurement": "Primary parameters (duration of MV & InoTx), treated vs placebo", "setting": "[2]", "value": "near-significance"}, {"measurement": "Composite (the longer of the MV or InoTx), median", "setting": "[3]; <65% of target Dose 2, p = 0.0040 vs placebo", "value": 1267.0, "unit": "min"}, {"measurement": "Vent (duration of mechanical ventilation), median", "setting": "[3]; <65% of target Dose 2, p = 0.0097 vs placebo", "value": 139.0, "unit": "min"}, {"measurement": "Inotrope (duration of inotrope therapy), median", "setting": "[3]; <65% of target Dose 2, p = 0.0211 vs placebo", "value": 1260.0, "unit": "min"}, {"measurement": "PICU/NICU stay, median", "setting": "[3]; <65% of target Dose 2, p = 0.0236 vs placebo", "value": 2, "unit": "days"}, {"measurement": "Hospitalization, median", "setting": "[3]; <65% of target Dose 2, p = 0.0953 vs placebo", "value": 4, "unit": "days"}, {"measurement": "Long-term hospitalizations, citrulline-treated vs placebo", "setting": "[3]; <75% of calculated Dose 2", "value": "fewer long-term hospitalizations"}, {"measurement": "Overall length of hospital stay, citrulline vs placebo", "setting": "[3]; <75% of calculated Dose 2", "value": "not significantly different"}, {"measurement": "Reduction of median Composite time vs placebo", "setting": "[3]; <75% of target Dose 2", "value": 42, "unit": "%"}, {"measurement": "Reduction of median Inotrope time vs placebo", "setting": "[3]; <75% of target Dose 2", "value": 26, "unit": "%"}, {"measurement": "Reduction of median Mechanical Ventilation time vs placebo", "setting": "[3]; <75% of target Dose 2", "value": 70, "unit": "%"}, {"measurement": "Reduction of median PICU/NICU stay vs placebo", "setting": "[3]; <75% of target Dose 2", "value": 33, "unit": "%"}, {"measurement": "Composite (the longer of the MV or InoTx), median", "setting": "[3]; <75% of target Dose 2, p = 0.0025 vs placebo", "value": 1267.0, "unit": "min"}, {"measurement": "Vent (duration of mechanical ventilation), median", "setting": "[3]; <75% of target Dose 2, p = 0.0129 vs placebo", "value": 170.0, "unit": "min"}, {"measurement": "Inotrope (duration of inotrope therapy), median", "setting": "[3]; <75% of target Dose 2, p = 0.0158 vs placebo", "value": 1260.0, "unit": "min"}, {"measurement": "PICU/NICU stay, median", "setting": "[3]; <75% of target Dose 2, p = 0.0295 vs placebo", "value": 2, "unit": "days"}, {"measurement": "Hospitalization, median", "setting": "[3]; <75% of target Dose 2, p = 0.1905 vs placebo", "value": 5, "unit": "days"}, {"measurement": "Composite (the longer of the MV or InoTx), median", "setting": "[3]; <85% of target Dose 2, p = 0.0029 vs placebo", "value": 1283.5, "unit": "min"}, {"measurement": "Vent (duration of mechanical ventilation), median", "setting": "[3]; <85% of target Dose 2, p = 0.0163 vs placebo", "value": 176.0, "unit": "min"}, {"measurement": "Inotrope (duration of inotrope therapy), median", "setting": "[3]; <85% of target Dose 2, p = 0.0176 vs placebo", "value": 1263.5, "unit": "min"}, {"measurement": "PICU/NICU stay, median", "setting": "[3]; <85% of target Dose 2, p = 0.0332 vs placebo", "value": 2, "unit": "days"}, {"measurement": "Hospitalization, median", "setting": "[3]; <85% of target Dose 2, p = 0.1369 vs placebo", "value": 5, "unit": "days"}, {"measurement": "Composite (the longer of the MV or InoTx), median", "setting": "[3]; <95% of target Dose 2, p = 0.0033 vs placebo", "value": 1357.0, "unit": "min"}, {"measurement": "Inotrope (duration of inotrope therapy), median", "setting": "[3]; <95% of target Dose 2, p = 0.0242 vs placebo", "value": 1300.0, "unit": "min"}, {"measurement": "Vent (duration of mechanical ventilation), median", "setting": "[3]; <95% of target Dose 2, p = 0.0459 vs placebo", "value": 237.0, "unit": "min"}, {"measurement": "PICU/NICU stay, median", "setting": "[3]; <95% of target Dose 2, p = 0.1232 vs placebo", "value": 2, "unit": "days"}, {"measurement": "Hospitalization, median", "setting": "[3]; <95% of target Dose 2, p = 0.3169 vs placebo", "value": 5, "unit": "days"}, {"measurement": "Hospitalization, median", "setting": "[3]; >95% of target Dose 2, p = 0.0006 vs placebo", "value": 7, "unit": "days"}, {"measurement": "PICU/NICU stay, median", "setting": "[3]; >95% of target Dose 2, p = 0.0034 vs placebo", "value": 4, "unit": "days"}, {"measurement": "Vent (duration of mechanical ventilation), median", "setting": "[3]; >95% of target Dose 2, p = 0.0041 vs placebo", "value": 2385.0, "unit": "min"}, {"measurement": "Inotrope (duration of inotrope therapy), median", "setting": "[3]; >95% of target Dose 2, p = 0.0069 vs placebo", "value": 3142.5, "unit": "min"}, {"measurement": "Composite (the longer of the MV or InoTx), median", "setting": "[3]; >95% of target Dose 2, p = 0.0114 vs placebo", "value": 3447.0, "unit": "min"}, {"measurement": "Composite (the longer of the MV or InoTx), median", "setting": "[3]; All Patients, p = 0.3398 vs placebo (median 2204.0)", "value": 1640.0, "unit": "min"}, {"measurement": "Hospitalization, median", "setting": "[3]; All Patients, p = 0.3681 vs placebo (median 5)", "value": 5, "unit": "days"}, {"measurement": "Inotrope (duration of inotrope therapy), median", "setting": "[3]; All Patients, p = 0.7131 vs placebo (median 1717.0)", "value": 1514.0, "unit": "min"}, {"measurement": "PICU/NICU stay, median", "setting": "[3]; All Patients, p = 0.8484 vs placebo (median 3)", "value": 3, "unit": "days"}, {"measurement": "Vent (duration of mechanical ventilation), median", "setting": "[3]; All Patients, p = 0.9205 vs placebo (median 574.5)", "value": 672.0, "unit": "min"}, {"measurement": "Reduction in the length of stay in the PICU or NICU following surgery", "setting": "[3]; Dose 2 at levels <95%, statistically significant", "value": "one"}, {"measurement": "Duration of MV, InoTx and composite primary, vs placebo", "setting": "[3]; all doses under 95% of the target, two-sided Wilcoxon Rank Sum", "value": "Statistically significant reduction of all variables"}, {"measurement": "Composite endpoint, treated vs placebo", "setting": "[3]; complete modified full analysis set", "value": "no difference"}, {"measurement": "Effect on composite variable, duration of mechanical ventilation and inotrope therapy vs placebo", "setting": "[3]; doses higher than 95% of target (>190 μmol)", "value": "statistically significant negative effect"}]}]}
